For 32 compounds, viability results are on record in publication PMC12040169 (PLOS Biology, 2025).

One series can be described thus: in vitro. The following applies: human, hela cells, % viability.
Turning to `CC(Cc1ccsc1)NS(=O)(=O)c1cccc(C(=O)N2CCCC2)c1` (centres unmarked) [CBK306923], the viability – broadly, a read-out of living cells in per cent, often relative to untreated cells – at 28.5 h, 10 µM was found to be 85.8%.

On to `C[C@H]1[C@@H]2[C@@H](O)C([C@H](C)C(=O)N3CCCCC3)CC[C@@]2(C)CC[C@@H]1NC(=O)c1cnccn1` (some centres unmarked) [CBK289448], for which the viability at 28.5 h, 10 µM came out at 111%.

As for `C[C@@H]1CN2CCCC2CN1CCc1ccccc1` (some centres unmarked) [CBK285424], the viability at 28.5 h, 10 µM was 85.4%.

For `CN(C)CCSc1cncc(N2CCCC2)n1` [CBK105294], the viability at 28.5 h, 10 µM is 104%.

Regarding `COc1ccc(S(=O)(=O)N(CC(=O)Nc2ccc(F)cc2)c2ccccc2)cc1` [CBK264141], the viability at 28.5 h, 10 µM came out at 96.5%.

Take `COc1cccc(C2CC(c3cccc(Cl)c3)n3nc(N)nc3N2)c1` (centres unmarked) [CBK293966]: the viability at 28.5 h, 10 µM turned out to be 85.1%.

Turning to `O=C(O)c1cccc2c1C(=O)N(Cc1ccccc1F)C2` [CBK291172], the viability at 28.5 h, 10 µM turned out to be 86.8%.

For `O=C(NCc1ccc(Cl)cc1)c1cnc2ccc(CN3CCSCC3)cc2c1O` [CBK018010], the viability at 28.5 h, 10 µM worked out at 97.9%.

For `CCn1cc(C(=O)O)c(=O)c2cc(F)c(N3CCN(S(=O)(=O)c4ccc(C)cc4)CC3)cc21` [CBK265122], the viability at 28.5 h, 10 µM is 95.1%.

For the compound `C(=N\Nc1nc2ccccc2[nH]1)/c1cccs1` [CBK025417], the viability at 28.5 h, 10 µM came out at 87.6%.

Take `O=C(O)c1cccc2c1C(=O)N(Cc1c(F)cccc1Cl)C2` [CBK291201]: the viability at 28.5 h, 10 µM worked out at 111%.

With `Cc1nc(C(=O)N(C)C(C)c2cc3ccccc3o2)nn1-c1ccc(F)cc1` (centres unmarked) [CBK296657], the viability at 28.5 h, 10 µM amounted to 108%.

For the compound `FC(F)(F)c1ccnc(OCc2cccnc2)c1` [CBK115784], the viability at 28.5 h, 10 µM amounted to 99.6%.

For the compound `O=C(O)[C@@H]1CC(O)CN1C(=O)c1ccc2noc(-c3ccccc3)c2c1` (some centres unmarked) [CBK286736], the viability at 28.5 h, 10 µM stood at 86.1%.

Consider `CCC1CCC2(CC1)NC(=O)N(CC(=O)Nc1nccs1)C2=O` (centres unmarked) [CBK305936], for which the viability at 28.5 h, 10 µM was found to be 95.9%.

Take `CCCC/C=C/c1nccnc1NCc1ccc(C(F)(F)F)cc1` [CBK038077]: the viability at 28.5 h, 10 µM was 94.4%.

Consider `COc1ccc(Cl)cc1N1CCN(CCN2CCCCC2)CC1` [CBK126445], for which the viability at 28.5 h, 10 µM was 100%.

As to `CC(C)(C)OC(=O)n1cnc(CC#N)c1` [CBK000202], the viability at 28.5 h, 10 µM came to 83.1%.

Take `CCS(=O)(=O)NC1CCN(c2nc(C(F)(F)F)nc3ccsc23)CC1` [CBK304593]: the viability at 28.5 h, 10 µM turned out to be 108%.

In the case of `CCCc1nc(CN2CCN(c3ccc4nncn4n3)CC2)cs1` [CBK305330], the viability at 28.5 h, 10 µM was determined as 97.7%.

Consider `CCn1c(N2CCC(C(=O)NCC3CC3)CC2)nc2ccccc21` [CBK283983], for which the viability at 28.5 h, 10 µM came to 104%.

`CC(=O)N1Cc2ccccc2OC2(CCN(C(=O)C3CC3)CC2)C1` [CBK285037]: the viability at 28.5 h, 10 µM is 104%.

As for `COc1ccc(S(=O)(=O)N2CCN(C(=O)c3cc(-c4cccnc4)nc4c(C)cc(C)cc34)CC2)cc1OC` [CBK267767], the viability at 28.5 h, 10 µM was determined as 99.4%.

Take `Cc1nc(COc2ccc(Cl)cc2)sc1C(=O)N1CCCCC1C(=O)O` (centres unmarked) [CBK304233]: the viability at 28.5 h, 10 µM was determined as 87.9%.

For `NCCCOc1cncc(N2CCCC2)n1` [CBK115603], the viability at 28.5 h, 10 µM amounted to 96.8%.

Regarding `CCOC(=O)CC1=C(C(=O)OCC)C(c2ccccc2C(F)(F)F)C(C#N)=C(N)O1` (centres unmarked) [CBK262710], the viability at 28.5 h, 10 µM came out at 105%.

As to `COc1ccc(C(=O)NC(Nc2ccccc2)C(Cl)(Cl)Cl)cc1OC` (centres unmarked) [CBK263680], the viability at 28.5 h, 10 µM came out at 106%.

As for `CC(C)C(=O)N1CC2(CCN(Cc3ncc[nH]3)CC2)c2ccccc21` [CBK126731], the viability at 28.5 h, 10 µM came to 109%.

As for `O=C(NCCn1ccnc1)C1CC(=O)N(c2cccc(F)c2)C1` (centres unmarked) [CBK281582], the viability at 28.5 h, 10 µM came to 105%.

For `COc1ccc(OCC(=O)Nc2ccc(C(=O)O)c(Cl)c2)cc1` [CBK287108], the viability at 28.5 h, 10 µM amounted to 104%.

As to `COc1ccccc1/C=C/CN(C)CCN(C)C` [CBK261888], the viability at 28.5 h, 10 µM was determined as 88.5%.

The series is the same for the next values; noted with them: human, hela cells, % viability, bulk resorufin, single well.
For the compound `c1cc2c(cc1-c1ccc3c(c1)COC1(CCNCC1)O3)CCO2` [CBK060920], the viability at 28.5 h, 10 µM was 108%.
